Patent US10874103B2, “Antibacterial composition comprising an acetal or a long-chain alkyl hexitane ether” (TEREOS STARCH & SWEETENERS BELGIUM, priority 2014, dated 2020)
In brackets after ≈: the same amount, converted by molar mass.

Key:
[1] = system: E. faecalis (ATCC® 29212™); experiment: MIC, 96-well microplate microdilution (Example 4); type: cell-based; conditions: 18 h at 37° C.; for MIC: Enterococcus faecalis, ATCC29212, Mueller-Hinton medium, read-out: Minimum inhibitory concentration (MIC) E. faecalis
Method: (§1) The bacteriostatic properties of the derivatives are evaluated by measuring their minimum inhibitory concentration (MIC) on the bacteria tested. Such a measurement is made using the 96-well microplate microdilution method according to the conditions defined below.
(§2) The minimum inhibitory concentrations (MIC) are tested on Gram-positive bacterial strains according to the recommendations of the “Clinical Laboratory Standards Institute” (Clinical-Laboratory-Standards-Institute, 6th ed. Approved standard M100-S17. CLSI, Wayne, Pa., 2007).
(§3) The Gram-positive bacteria studied are as follows: L. monocytogenes (CIP 103575), E. faecalis (ATCC® 29212™) and S. aureus (ATCC® 292213™).
(§4) The cultures studied, freshly isolated (after incubation on a blood agar at 37° C. for 18 h), are taken up in sterile water (10 mL) until a 0.5 McFarland (Mc) suspension i.e. 1 to 2×10^8 CFU (bacteria)/cm^3 is obtained. The bacterial suspension was then diluted to obtain a final concentration of 5×10^5 CFU/cm^3.
(§5) Each well contains an identical quantity of Mueller-Hinton medium (a rich medium for bacterial culture) and bacteria with final 5×10^5 CFU/cm^3.
(§6) The test compounds of interest are solubilized in 2.5% m of ethanol before being diluted to different concentrations two by two.
(§7) On the multiwell plate, a first series has been planned comprising the culture medium without the test compound of interest. It corresponds to the growth control (control well). These controls serve as reference for comparing bacterial growth with that of the subsequent wells comprising different concentrations of the test compound of interest. The second series of wells comprises the mother solution for the test compound of interest for a concentration in the wells of 4 mM. Each series of wells was diluted two by two until the last series for a final concentration of 0.003 mM. Each concentration is duplicated in the same plate. The plate is incubated for 18 h at 37° C. […] If there is antibacterial activity, the bacterial growth is inhibited, which means that no turbidity or bacterial residue is present.
(§8) Tests have been conducted on Gram-positive bacteria with sorbitan derivatives. […] After sterilization the solutions are diluted in water. The results obtained for antimicrobial tests on the 3 bacterial strains L. monocytogenes (CIP 103575), E. faecalis (ATCC® 29212™) and S. aureus (ATCC® 292213™) are summarized in Table 1.

[2] = system: S. aureus (ATCC® 292213™); experiment: MIC, 96-well microplate microdilution (Example 4); type: cell-based; conditions: for MIC: Staphylococcus aureus, ATCC292213, read-out: Minimum inhibitory concentration (MIC) S. aureus; for MIC / Minimum inhibitory concentration (MIC) S. aureus: ATCC 292213, Mueller-Hinton medium, 18 h at 37° C.
Method: as §1, §2, §3, §4, §5, §6, §7, §8

[3] = system: L. monocytogenes (CIP 103575); experiment: MIC, 96-well microplate microdilution (Example 4); type: cell-based; conditions: 18 h at 37° C.; for MIC: Listeria monocytogenes, CIP103575, Mueller-Hinton medium, read-out: Minimum inhibitory concentration (MIC) L. monocytogenes; for Minimum inhibitory concentration (MIC) L. monocytogenes: Mueller-Hinton medium
Method: as §1, §2, §3, §4, §5, §6, §7, §8

[4] = system: E. faecalis (ATCC® 29212™); experiment: MBC, bacterial count from clear wells reseeded on agar (Example 5); type: cell-based
Method: (§9) To determine whether the agents tested are bactericidal, the minimum bactericidal concentration (MBC) is determined. The MBC corresponds to the concentration leaving a number of bacterial survivors of <4 log. For this, a bacterial count is run from clear wells or without bacterial residue (C≤MIC). To do this, a dilution to 1/100 was conducted with the two wells with the same concentration before seeding on a blood agar using the Spiral technique. After 24 h of incubation at 37° C., the visual count allowed determination of the minimum concentration from which there is no bacterial growth.
(§10) To determine the bactericidal effect of compounds presenting bacteriostatic properties, the wells no longer presenting turbidity were reseeded on agar.

[5] = system: L. monocytogenes (CIP 103575); experiment: as above; type: cell-based
Method: as §9, §10

[6] = Critical micelle concentration (surfactant properties, Example 6); type: physicochemical
Excerpt: The physical, chemical and antimicrobial properties for the best products synthesized have been tested. These analyses show the different surfactant profiles, and the minimum inhibitory concentrations (MIC) for each compound on Gram-positive bacteria. The best surfactant and antimicrobial results are compared in Table 3.

[7] = system: L. monocytogenes (CIP 103575), E. faecalis (ATCC® 29212™) and S. aureus (ATCC® 292213™); experiment: MIC microdilution, statements for all three Gram-positive strains together; type: cell-based
Method: as §1, §2, §3, §4, §5, §6
On the multiwell plate, a first series has been planned comprising the culture medium without the test compound of interest. […]

Compound | MIC [1] | MIC [2] | MIC [3] | also measured
CCCCCOCC(O)[C@H]1OCC(O)C1O (stereo partly drawn) [Example 2a, Pentyl-1,4-D-sorbitan] | > 4 mM | > 4 mM | > 4 mM | 
CCCCCCCC1OCC([C@H]2OCC(O)C2O)O1 (stereo partly drawn) [Example 1c, 5,6-O-Octylidene-1,4-D-sorbitan 1c and 1c′ and 3,5-O-octylidene-1,4-D-sorbitan 1c″ and 1c′″] | > 4 mM | > 4 mM | > 4 mM | 
CCCCCCOCC(O)[C@H]1OCC(O)C1O (stereo partly drawn) [Example 2b, Hexyl-1,4-D-sorbitan] | > 4 mM | > 4 mM | > 4 mM | 
CCCCC1OCC([C@H]2OCC(O)C2O)O1 (stereo partly drawn) [Example 1a, 5,6-O-Pentylidene-1,4-D-sorbitan 1a and 1a′ and 3,5-O-pentylidene-1,4-D-sorbitan 1a″ and 1a′″] | > 4 mM | > 4 mM | > 4 mM | 
5,6-O-Dodecylidene-1,4-D-sorbitan 1e and 1e′ and 3,5-O-dodecylidene-1,4-D-sorbitan 1e′ and 1e′″ [Example 1e] |  |  |  | bactericidal concentration for E. faecalis [4]: 0.03 mM; minimum bactericidal concentration (MBC) E. faecalis ([4]; Table 2, reseeded on agar): 0.03 mM; bactericidal concentration for L. monocytogenes [5]: 0.03 mM; minimum bactericidal concentration (MBC) L. monocytogenes ([5]; Table 2, reseeded on agar): 0.03 mM; Minimum inhibitory concentration (MIC) E. faecalis ([1]; Mueller-Hinton medium): 0.03 mM; bacteriostatic concentration for S. aureus [2]: 0.12 mM; Minimum inhibitory concentration (MIC) S. aureus [2]: 0.12 mM; Minimum inhibitory concentration (MIC) L. monocytogenes [3]: 0.03 mM; CMC (critical micelle concentration) [6]: 0.034 mM
CCCCCC1OCC([C@H]2OCC(O)C2O)O1 (stereo partly drawn) [Example 1b, 5,6-O-Hexylidene-1,4-D-sorbitan 1b and 1b′ and 3,5-O-hexylidene-1,4-D-sorbitan 1b″ and 1b′″] | > 4 mM | > 4 mM | > 4 mM | 
CCCCCCCCCCCC=O [dodecanal, reference compound] |  |  |  | MIC / inhibitory concentration on the bacterial strains studied [7]: > 4 mM
CCCCCCCCCC1OCC([C@H]2OCC(O)C2O)O1 (stereo partly drawn) [Example 1d, 5,6-O-Decylidene-1,4-D-sorbitan 1d and 1d′ and 3,5-O-decylidene-1,4-D-sorbitan 1d′ and 1d′″] | > 4 mM | > 4 mM | > 4 mM | 
CCCCCCCCCCOCC(O)[C@H]1OCC(O)C1O (stereo partly drawn) [Example 2d, Decyl-1,4-d-sorbitan] | > 4 mM | > 4 mM | > 4 mM | 
CCCCCCCCOCC(O)[C@H]1OCC(O)C1O (stereo partly drawn) [Example 2c, Octyl-1,4-D-sorbitan] | > 4 mM | > 4 mM | > 4 mM | 
CCCCCCCCCCCC(=O)OCC(O)CO (stereo not drawn) [Monolaurin (ML), monolaurin, reference compound] |  |  |  | Minimum inhibitory concentration (MIC) S. aureus [2]: 0.04 mM (≈ 11 µg/mL); Minimum inhibitory concentration (MIC) L. monocytogenes [3]: 0.04 mM (≈ 11 µg/mL)
